Assay results as given in ChEMBL document CHEMBL1157782, “Anti-microtubule 'plinabulin' chemical probe KPU-244-B3 labeled both alpha- and beta-tubulin” (Bioorg Med Chem, 2010).
Activity calls are given as the source filed them. The calls are words filed in the database; no cut-off is given here. Square brackets hold non-standard residues; d marks the D form. Peptide text beside a SMILES is read from it. * marks the point of attachment. Biotin = O=C1N[C@H]2[C@H](CS[C@H]2CCCCC(=O)*)N1; Ahx = NCCCCCC(=O)O

Tests used:
[1] = test system: HT-29; assay: Cytotoxicity against human HT-29 cells; assay type: functional, cell-based
[2] = biological target: Tubulin (Sus scrofa, UniProt P02554+P02550); assay: Binding affinity to pig tubulin after 1 hr by fluorescence quenching analysis; assay type: protein assay
[3] = biological target: T1, Tubulin (Sus scrofa) (UniProt P02554+P02550); assay: Binding affinity to pig tubulin at 2 uM treated for 30 mins followed by photo-irradiation at 365 nm for 30 secs measured after 1 hr by Western blot analysis; assay type: protein assay
[4] = biological target: T1, Tubulin (Sus scrofa); assay: Binding affinity to pig tubulin at 2 uM treated for 30 mins followed by photo-irradiation at 365 nm for 30 secs measured after 1 hr by Western blot analysis in presence of 5-100 equivalents of biotin; assay type: protein assay
[5] = species: Sus scrofa; assay: Binding affinity to pig alpha-tubulin at 2 uM treated for 30 mins followed by photo-irradiation at 365 nm for 30 secs measured after 1 hr by Western blot analysis
[6] = test system: HT-1080; assay: Binding affinity to alpha-tubulin in human HT1080 cells after overnight incubation by SDS-PAGE; assay type: cell-based
[7] = biological target: T1, Tubulin (Sus scrofa); assay: Binding affinity to pig tubulin at 2 uM treated for 30 mins followed by photo-irradiation at 365 nm for 30 secs measured after 1 hr by Western blot analysis in presence of 100 equivalents of colchicine; assay type: protein assay
[8] = biological target: T1, Tubulin (Sus scrofa); assay: Binding affinity to pig tubulin assessed as irradiation-time-dependent labeling at 2 uM treated for 30 mins followed by photo-irradiation at 365 nm by CBB staining-based SDS-PAGE; assay type: protein assay; conditions: TDE = time-dependent effect
[9] = biological target: T1, Tubulin (Sus scrofa); assay: Binding affinity to pig tubulin at 2 uM treated for 30 mins followed by photo-irradiation at 365 nm for 30 secs measured after 1 hr by Western blot analysis in presence of increasing concentration of plinabulin; assay type: protein assay
[10] = species: Sus scrofa; assay: Binding affinity to pig beta-tubulin at 2 uM treated for 30 mins followed by photo-irradiation at 365 nm for 30 secs measured after 1 hr by Western blot analysis
[11] = biological target: T1, Tubulin (Sus scrofa); assay: Binding affinity to pig tubulin at 2 uM treated for 30 mins followed by photo-irradiation at 365 nm for 30 secs measured after 1 hr by CBB staining-based SDS-PAGE; assay type: protein assay
[12] = test system: HT-1080; assay: Binding affinity to beta-tubulin in human HT1080 cells after overnight incubation by SDS-PAGE; assay type: cell-based

T1 sequence (P02550 whole entry, looked up): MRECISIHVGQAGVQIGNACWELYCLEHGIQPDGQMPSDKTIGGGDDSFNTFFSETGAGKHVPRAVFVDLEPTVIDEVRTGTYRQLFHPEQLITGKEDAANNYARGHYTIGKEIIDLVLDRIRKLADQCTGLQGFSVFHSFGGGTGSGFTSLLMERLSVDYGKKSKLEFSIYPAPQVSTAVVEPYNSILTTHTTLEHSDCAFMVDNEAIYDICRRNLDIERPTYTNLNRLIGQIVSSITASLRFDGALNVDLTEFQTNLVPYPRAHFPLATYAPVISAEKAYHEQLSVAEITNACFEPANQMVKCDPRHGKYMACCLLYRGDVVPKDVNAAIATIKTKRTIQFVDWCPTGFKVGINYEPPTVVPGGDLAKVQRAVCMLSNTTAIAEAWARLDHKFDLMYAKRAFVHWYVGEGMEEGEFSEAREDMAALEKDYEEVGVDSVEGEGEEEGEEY
T1 sequence (P02554 whole entry, looked up): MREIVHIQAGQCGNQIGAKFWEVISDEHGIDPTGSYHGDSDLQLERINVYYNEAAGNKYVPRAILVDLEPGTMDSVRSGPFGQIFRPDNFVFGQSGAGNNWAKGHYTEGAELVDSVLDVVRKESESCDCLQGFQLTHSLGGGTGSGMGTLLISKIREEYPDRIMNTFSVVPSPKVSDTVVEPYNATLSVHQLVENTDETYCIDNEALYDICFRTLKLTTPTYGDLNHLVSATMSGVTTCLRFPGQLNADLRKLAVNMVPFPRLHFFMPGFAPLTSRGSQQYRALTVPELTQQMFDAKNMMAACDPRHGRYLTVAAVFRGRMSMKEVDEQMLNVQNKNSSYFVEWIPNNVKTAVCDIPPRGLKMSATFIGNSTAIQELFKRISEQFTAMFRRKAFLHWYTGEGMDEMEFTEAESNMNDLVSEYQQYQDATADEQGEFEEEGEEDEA

Row | Kd [2] | Structure (SMILES) | IC50 [1] | Activity [6] | Activity [12] | other results
1 |  | CC(C)(C)c1ocnc1/C=c1\[nH]c(=O)/c(=C/c2cccc(C(=O)c3ccccc3)c2)[nH]c1=O | 4 nM |  |  | 
2 | 9740 nM | CC(C)(C)c1ocnc1/C=c1\[nH]c(=O)/c(=C/c2cccc(C(=O)c3ccc(CNC(=O)CCCCCNC(=O)CCCCCNC(=O)CCCC[C@@H]4SC[C@@H]5NC(=O)N[C@@H]54)cc3)c2)[nH]c1=O (stereo in doubt) |  |  |  | Activity [3]: Active
3 | 25170 nM | CC(C)(C)c1ocnc1/C=c1\[nH]c(=O)/c(=C/c2cccc(C(=O)c3ccc(CNC(=O)CCCCCNC(=O)CCCCCNC(=O)CCCCCNC(=O)CCCCCNC(=O)[C@H](CCCCN)NC(=O)[C@H](CCCCN)NC(=O)CCCCCNC(=O)CCCCCNC(=O)CCCC[C@@H]4SC[C@@H]5NC(=O)N[C@@H]54)cc3)c2)[nH]c1=O (stereo in doubt) |  | Active | Active | Activity [4]: Active; Activity [5]: Active; Activity [7]: inactive; Activity [8]: tde; Activity [9]: inactive; Activity [10]: Active; Activity [11]: Active
4 |  | NCCCC[C@H](NC(=O)CCCCCNC(=O)CCCCCNC(=O)CCCC[C@@H]1SC[C@@H]2NC(=O)N[C@@H]21)C(=O)N[C@@H](CCCCN)C(=O)NCCCCCC(=O)NCCCCCC(=O)NCCCCCC(=O)NCCCCCC(=O)O ({Biotin-Ahx-Ahx}-KK[Ahx][Ahx][Ahx][Ahx]-OH) |  | inactive | inactive | 

Row | Structure (SMILES) | Kd [2] | IC50 [1] | Activity [6] | Activity [12] | other results
5 | CC(C)(C)c1[nH]cnc1/C=c1\[nH]c(=O)/c(=C/c2ccccc2)[nH]c1=O [PLINABULIN] | 1060 nM | 15 nM |  |  | 
